Data taken from ChEMBL document CHEMBL6087474, “Discovery of an Efficacious RET PROTAC Degrader with Enhanced Antiproliferative Activity against Resistant Cancer Cells Harboring RET Solvent-Front Mutations” (J Med Chem, 2025).

Assays:
[1] = Induction of apoptosis in mouse BaF3 cells stably expressing KIF5B-RET-G810C mutant assessed as necrotic cells at 100 nM measured after 48 hrs by Annexin V-FITC/7-AAD staining based flow cytometric analysis (reference value: 2.89 %); type: functional
[2] = Induction of apoptosis in mouse BaF3 cells stably expressing wildtype KIF5B-RET fusion protein assessed as late apoptotic cells at 11.1 nM measured after 48 hrs by Annexin V-FITC/7-AAD staining based flow cytometric analysis (reference value: 1.03 %); type: functional
BaF3 [3] = test: Antiproliferative activity against mouse BaF3 cells stably expressing CCDC6-RET-V804M mutant incubated for 72 hrs by CCK-8 assay; type: functional, cell-based; settings: BaF3, 72 h
[4] = Effect on RET protein level in mouse BaF3 cells stably expressing wildtype KIF5B-RET assessed as fold change at 11.1 nM measured after 6 hrs by Western blot analysis (reference value: 1); type: functional
[5] = Potency index, ratio of selpercatinib IC50 to test compound IC50 for antiproliferative activity against mouse BaF3 cells stably expressing KIF5B-RET-G810R mutant incubated for 72 hrs by CCK-8 assay; type: functional
[6] = PROTAC activity at CRBN/KIF5B-RET-G810R mutant (unknown origin) expressed in mouse BaF3 cells assessed as induction of RET degradation measured after 6 hrs by Western blot analysis; type: cell-based; settings: BaF3, 6 h
[7] = Effect on RET protein level in mouse BaF3 cells stably expressing wildtype KIF5B-RET assessed as fold change at 33.3 nM measured after 6 hrs by Western blot analysis (reference value: 1); type: functional
[8] = Induction of apoptosis in mouse BaF3 cells stably expressing wildtype KIF5B-RET fusion protein assessed as viable cells at 300 nM measured after 48 hrs by Annexin V-FITC/7-AAD staining based flow cytometric analysis (reference value: 86.65 %); type: functional; settings: read-out: Activity
BaF3 [9] = test: PROTAC activity at CRBN/KIF5B-RET (unknown origin) expressed in mouse BaF3 cells assessed as induction of RET degradation by measuring maximal efficacy measured after 6 hrs by Western blot analysis relative to control; type: cell-based; settings: Homo sapiens
[10] = Effect on Shc protein level in mouse BaF3 cells stably expressing KIF5B-RET-G810C mutant assessed as fold change at 11.1 nM measured after 6 hrs by Western blot analysis (reference value: 1); type: functional
[11] = Potency index, ratio of selpercatinib IC50 to test compound IC50 for antiproliferative activity against mouse BaF3 cells stably expressing KIF5B-RET-G810S mutant incubated for 72 hrs by CCK-8 assay; type: functional
[12] = Induction of apoptosis in mouse BaF3 cells stably expressing KIF5B-RET-G810C mutant assessed as necrotic cells at 33.3 nM measured after 48 hrs by Annexin V-FITC/7-AAD staining based flow cytometric analysis (reference value: 2.89 %); type: functional
BaF3 [13] = test: Antitumor activity against mouse BaF3 cells stably expressing KIF5B-RET-G810C mutant implanted in male BALB/c mouse model assessed as tumor growth inhibition at 30 mg/kg, ip administered daily for 14 days relative to control; type: functional; settings: BaF3, 336 h, time 14 day, read-out: TGI
BaF3 [14] = test: Antitumor activity against mouse BaF3 cells stably expressing KIF5B-RET-G810C mutant implanted in male BALB/c mouse model assessed as tumor growth inhibition at 10 mg/kg, ip administered daily for 14 days relative to control; type: functional; settings: BaF3, 336 h, time 14 day, read-out: TGI
[15] = Effect on Shc protein level in mouse BaF3 cells stably expressing wildtype KIF5B-RET assessed as fold change at 100 nM measured after 6 hrs by Western blot analysis; type: functional
[16] = Effect on RET protein level in mouse BaF3 cells stably expressing KIF5B-RET-G810C mutant assessed as fold change at 11.1 nM measured after 6 hrs by Western blot analysis (reference value: 1); type: functional
BaF3 [17] = test: Antiproliferative activity against mouse BaF3 cells stably expressing KIF5B-RET fusion protein incubated for 72 hrs by CCK-8 assay; type: functional, cell-based; settings: BaF3, 72 h
[18] = Induction of apoptosis in mouse BaF3 cells stably expressing wildtype KIF5B-RET fusion protein assessed as viable cells at 11.1 nM measured after 48 hrs by Annexin V-FITC/7-AAD staining based flow cytometric analysis (reference value: 86.65 %); type: functional; settings: read-out: Activity
[19] = Induction of apoptosis in mouse BaF3 cells stably expressing KIF5B-RET-G810C mutant assessed as necrotic cells at 300 nM measured after 48 hrs by Annexin V-FITC/7-AAD staining based flow cytometric analysis (reference value: 2.89 %); type: functional
BaF3 [20] = test: PROTAC activity at CRBN/KIF5B-RET (unknown origin) expressed in mouse BaF3 cells assessed as induction of RET degradation at 100 nM measured after 6 hrs by Western blot analysis relative to control; type: cell-based
[21] = Induction of apoptosis in mouse BaF3 cells stably expressing wildtype KIF5B-RET fusion protein assessed as late apoptotic cells at 33.3 nM measured after 48 hrs by Annexin V-FITC/7-AAD staining based flow cytometric analysis (reference value: 1.03 %); type: functional
[22] = Effect on RET protein level in mouse BaF3 cells stably expressing wildtype KIF5B-RET assessed as fold change at 100 nM measured after 6 hrs by Western blot analysis (reference value: 1); type: functional
[23] = Induction of apoptosis in mouse BaF3 cells stably expressing wildtype KIF5B-RET fusion protein assessed as necrotic cells at 33.3 nM measured after 48 hrs by Annexin V-FITC/7-AAD staining based flow cytometric analysis (reference value: 2.40 %); type: functional
[24] = Effect on Shc protein level in mouse BaF3 cells stably expressing KIF5B-RET-V804M mutant assessed as fold change at 11.1 nM measured after 6 hrs by Western blot analysis (reference value: 1); type: functional
[25] = Effect on Shc protein level in mouse BaF3 cells stably expressing wildtype KIF5B-RET assessed as fold change at 33.3 nM measured after 6 hrs by Western blot analysis; type: functional
BaF3 [26] = test: Antitumor activity against mouse BaF3 cells stably expressing KIF5B-RET-G810C mutant implanted in male BALB/c mouse model assessed as reduction in tumor weight at 30 mg/kg, ip administered daily for 14 days relative to control; type: functional; parameters: scale not given: the % may be the effect or the level left; settings: time 14 day
[27] = Effect on Shc protein level in mouse BaF3 cells stably expressing KIF5B-RET-V804M mutant assessed as fold change at 33.3 nM measured after 6 hrs by Western blot analysis (reference value: 1); type: functional
[28] = Effect on RET protein level in mouse BaF3 cells stably expressing KIF5B-RET-G810R mutant assessed as fold change at 33.3 nM measured after 6 hrs by Western blot analysis (reference value: 1); type: functional
[29] = Induction of apoptosis in mouse BaF3 cells stably expressing wildtype KIF5B-RET fusion protein assessed as necrotic cells at 11.1 nM measured after 48 hrs by Annexin V-FITC/7-AAD staining based flow cytometric analysis (reference value: 2.40 %); type: functional
[30] = Effect on Shc protein level in mouse BaF3 cells stably expressing wildtype KIF5B-RET assessed as fold change at 11.1 nM measured after 6 hrs by Western blot analysis; type: functional

`COc1ccc(CN2C3CC2CN(c2ccc(-c4cc(-c5cnn(C6CCN(CCCCCC#Cc7cccc8c7CN(C7CCC(=O)NC7=O)C8=O)CC6)c5)cn5ncc(C#N)c45)cn2)C3)cn1` (stereo not given) showed an Activity [1] of 2.09%, an Activity [2] of 1.84% and an IC50 (BaF3 [3]) of 10 nM. The “fold change (FC)” value [4] was 0.5, the “Ratio IC50” value [5] was ~7 and the DC50 [6] was > 300 nM. For the same compound, the “fold change (FC)” value [7] was 0.3, the viability at 0.3 µM [8] was 50.2% and the Emax (BaF3 [9]) was 83%. For the same compound, the “fold change (FC)” value [10] was 1, the “Ratio IC50” value [11] was 6.3 and the Activity [12] was 2.77%. For the same compound, the inhibition in vivo at 30 mg/kg (BaF3 [13]) was 49.2%, the inhibition in vivo at 10 mg/kg (BaF3 [14]) was 31.6% and the “fold change (FC)” value [15] was 1. For the same compound, the “fold change (FC)” value [16] was 0.7, the IC50 (BaF3 [17]) was 10 nM and the viability at 0.0111 µM [18] was 83.8%. It also gave an Activity [19] of 2.15%, an Activity (BaF3 [20]) of 73% and an Activity [21] of 3.02%. For the same compound, the “fold change (FC)” value [22] was 0.3, the Activity [23] was 1.79% and the “fold change (FC)” value [24] was 1. For the same compound, the “fold change (FC)” value [25] was 1, the Activity (BaF3 [26]) was 34.4% and the “fold change (FC)” value [27] was 1. The “fold change (FC)” value [28] was 0.9, the Activity [29] was 3% and the “fold change (FC)” value [30] was 1.
